Experimental data: US20200170256A1, “Amonia Based Piscicide” (priority 2018, published 2020)

Legend:
[1] = test system: fathead minnows; experiment: fathead minnows exposed to the piscicide in 100-gallon laboratory tanks (effective amount of ammonium chloride); format: in vivo
Description: During each replicate trial, ten fathead minnows were exposed to the pisticide over a four hour period in 100-gallon laboratory tanks at 20° C.

[2] = test system: mitochondrial complex I; settings: 2011 NIH study; cited from earlier work

SMILES | effective amount of ammonium chloride alone (approximate same effect) [1] | role in inhibiting mitochondrial complex I among 31 tested piscicides [2]
Cl.N [ammonium chloride] | 0.6-0.8 grams per gallon | –
C=C(C)[C@H]1Cc2c(ccc3c2O[C@@H]2COc4cc(OC)c(OC)cc4[C@@H]2C3=O)O1 [Rotenone] | – | greatest role in inhibiting mitochondrial complex I
